Laboratory results: ChEMBL document CHEMBL3091390, “Novel Mps1 kinase inhibitors: from purine to pyrrolopyrimidine and quinazoline leads” (Bioorg Med Chem Lett, 2013)

Assays:
HCT-116 = assay: Cytotoxicity against human HCT116 cells; format: functional, cell-based
[1] = target: T1, Dual specificity protein kinase TTK (Homo sapiens, UniProt P33981); assay: Inhibition of full-length Mps1 kinase (unknown origin)
T1 sequence (P33981 whole entry): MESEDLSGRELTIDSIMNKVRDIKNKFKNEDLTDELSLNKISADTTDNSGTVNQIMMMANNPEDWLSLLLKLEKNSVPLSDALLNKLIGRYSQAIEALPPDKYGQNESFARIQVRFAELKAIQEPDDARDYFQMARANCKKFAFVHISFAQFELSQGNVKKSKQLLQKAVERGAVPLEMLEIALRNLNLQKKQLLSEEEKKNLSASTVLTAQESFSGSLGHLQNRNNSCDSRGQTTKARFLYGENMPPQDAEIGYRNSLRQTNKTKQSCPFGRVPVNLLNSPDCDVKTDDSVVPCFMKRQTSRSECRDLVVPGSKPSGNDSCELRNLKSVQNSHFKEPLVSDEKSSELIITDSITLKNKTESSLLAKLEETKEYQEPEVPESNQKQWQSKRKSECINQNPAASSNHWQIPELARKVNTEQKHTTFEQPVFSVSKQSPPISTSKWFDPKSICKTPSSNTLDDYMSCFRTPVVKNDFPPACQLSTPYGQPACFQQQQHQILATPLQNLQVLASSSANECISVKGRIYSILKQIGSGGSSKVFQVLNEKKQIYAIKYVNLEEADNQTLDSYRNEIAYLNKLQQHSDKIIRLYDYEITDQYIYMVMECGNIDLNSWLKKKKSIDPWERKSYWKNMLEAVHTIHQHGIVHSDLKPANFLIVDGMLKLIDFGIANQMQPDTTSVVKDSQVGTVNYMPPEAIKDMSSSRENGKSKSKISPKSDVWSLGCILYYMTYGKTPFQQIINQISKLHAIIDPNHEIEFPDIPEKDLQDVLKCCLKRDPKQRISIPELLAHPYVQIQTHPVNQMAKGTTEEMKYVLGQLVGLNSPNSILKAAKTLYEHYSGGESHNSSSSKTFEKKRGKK

IC50 [1] [nM] | Structure (SMILES) | IC50 (HCT-116) [nM]
 | Cc1cc(N2CCOCC2)ccc1Nc1nc(NC2CCCCC2)c2nc[nH]c2n1 | 23
> 100 | COc1cc(N2CCOCC2)ccc1Nc1ncc2ccc(-c3ccccc3)cc2n1 | 
> 100 | COc1cc(N2CCN(S(C)(=O)=O)CC2)ccc1Nc1nccc(NC2CCCCC2)n1 | 
35 | COc1cc(N2CCN(S(C)(=O)=O)CC2)ccc1Nc1nccc(N(C)C2CCCCC2)n1 | 2000
28 | COc1cc(N2CCN(S(C)(=O)=O)CC2)ccc1Nc1ncc(C)c(NC2CCCCC2)n1 | 1500
> 100 | COc1cc(N2CCN(S(C)(=O)=O)CC2)ccc1Nc1ncc(C)c(N(C)C2CCCCC2)n1 | 
46 | COc1cc(N2CCOCC2)ccc1Nc1ncc2ccn(C3CCCCC3)c2n1 | 7500
22 | Cc1cc(N2CCOCC2)ccc1Nc1ncc2ccn(C3CCCCC3)c2n1 | 8600
20 | COc1cc(N2CCN(S(C)(=O)=O)CC2)ccc1Nc1ncc2ccn(C3CCCCC3)c2n1 | 750
> 100 | COc1cc(N2CCN(S(C)(=O)=O)CC2)ccc1Nc1ncc2ccn(-c3ccccc3)c2n1 | 
32 | COc1cc(N2CCN(S(C)(=O)=O)CC2)ccc1Nc1ncc2ccn(-c3ccccn3)c2n1 | 10000
> 100 | COc1cc(N2CCN(S(C)(=O)=O)CC2)ccc1Nc1ncc2ccn(-c3cccnc3)c2n1 | 
> 100 | COc1cc(N2CCOCC2)ccc1Nc1ncc2ccc(NC3CCCCC3)cc2n1 | 
12 | COc1cc(N2CCOCC2)ccc1Nc1ncc2cccc(-c3ccccc3)c2n1 | 850
9 | COc1cc(N2CCOCC2)ccc1Nc1ncc2cccc(NC3CCCCC3)c2n1 | 6320
5 | COc1cc(N2CCN(S(C)(=O)=O)CC2)ccc1Nc1ncc2cccc(-c3ccccc3)c2n1 | 1740
8 | COc1cc(N2CCN(S(C)(=O)=O)CC2)ccc1Nc1ncc2cccc(-c3cccnc3)c2n1 | 1580
2 | COc1cc(N2CCN(S(C)(=O)=O)CC2)ccc1Nc1ncc2cccc(NC3CCCCC3)c2n1 | 810
